Reference: patent US20070015828A1 (Wyeth, priority 2005, published 2007)

How the values were obtained:
Assay type in all cases: physicochemical
Hygroscopicity = assay: Hygroscopicity
pH-Solubility = settings: free base
[1] = Octanol/Water Partitioning Coefficient; settings: @ pH 6
[2] = Solution Stability in aqueous solutions; settings: room temperature, all aqueous solutions (pH 1.6-10.5)

pH-Solubility (pH-Solubility; Final pH 1.60)	pH-Solubility (pH-Solubility; Final pH 7.62)	pH-Solubility (pH-Solubility; Final pH 8.21)	pH-Solubility (pH-Solubility; Final pH 9.00)	pH-Solubility (pH-Solubility; Final pH 10.5)	Octanol/Water Partitioning Coefficient Coct/Caq [1]	Hygroscopicity, weight gain (Hygroscopicity; @ 60% RH) [%]	Hygroscopicity, weight gain (Hygroscopicity; @ 90% RH, weight gain was lost when returned to 10% RH or 0% RH)	Structure (SMILES)	Hygroscopicity (Hygroscopicity)	Solution Stability, time stable [2]
								CN(C)CC(c1ccc(O)cc1)[C@]1(O)CC[C@@H](O)CC1.O=C(O)CCC(=O)O (stereo partly drawn) [Succinate salt, 1-[2-dimethylamino-1-(4-phenol)ethyl]-cis-1,4-cyclohexandiol succinate]	hygroscopic	
Final pH 1.60 >10.71 mg/ml	Final pH 7.62 >10.00 mg/ml	Final pH 8.21 >10.00 mg/ml	Final pH 9.00 7.65 mg/ml	Final pH 10.5 7.65 mg/ml	Coct/Caq @ pH 6 = 6.857	0.44	60% RH, 1.2% weight gain @ 90% RH,	COC1CCC(O)(C(CN(C)C)c2ccc(O)cc2)CC1 (stereo not drawn) [4-[2-dimethylamino-1-(cis-1-hydroxy-4-methoxy-cyclohexyl)-ethyl]-phenol]	Non-hygroscopic	The compound was stable for at least 72 hours
